Data as given in patent publication EP4534085A1, “COMPOUNDS FOR USE IN METHODS OF TREATING CANCER” (Scorpion Therapeutics, Inc., priority 2023, dated 2025).
Read-outs that look alike come from different tables or passages of the source.

Legend:
[1] = tested on: NCI-H3255 (L858R); assay: L858R human tumour xenograft, tumour growth inhibition; conditions: 5-15 mg/kg BID; L858R human tumour xenografts in mice
Text: (§1) A PC-9 derivative with an ex19del/C797S in cis double mutation was engineered by CRISPR knock-in.

[2] = molecular target: T1, MDR1 (Homo sapiens, UniProt P08183); assay: MDCK-MDR1 efflux; assay type: in vitro ADME; conditions: dog, read-out: MDCK-MDR1 ER
T1 construct: expressed in transfected cells; host or cells: MDCK
T1 sequence (P08183 whole entry): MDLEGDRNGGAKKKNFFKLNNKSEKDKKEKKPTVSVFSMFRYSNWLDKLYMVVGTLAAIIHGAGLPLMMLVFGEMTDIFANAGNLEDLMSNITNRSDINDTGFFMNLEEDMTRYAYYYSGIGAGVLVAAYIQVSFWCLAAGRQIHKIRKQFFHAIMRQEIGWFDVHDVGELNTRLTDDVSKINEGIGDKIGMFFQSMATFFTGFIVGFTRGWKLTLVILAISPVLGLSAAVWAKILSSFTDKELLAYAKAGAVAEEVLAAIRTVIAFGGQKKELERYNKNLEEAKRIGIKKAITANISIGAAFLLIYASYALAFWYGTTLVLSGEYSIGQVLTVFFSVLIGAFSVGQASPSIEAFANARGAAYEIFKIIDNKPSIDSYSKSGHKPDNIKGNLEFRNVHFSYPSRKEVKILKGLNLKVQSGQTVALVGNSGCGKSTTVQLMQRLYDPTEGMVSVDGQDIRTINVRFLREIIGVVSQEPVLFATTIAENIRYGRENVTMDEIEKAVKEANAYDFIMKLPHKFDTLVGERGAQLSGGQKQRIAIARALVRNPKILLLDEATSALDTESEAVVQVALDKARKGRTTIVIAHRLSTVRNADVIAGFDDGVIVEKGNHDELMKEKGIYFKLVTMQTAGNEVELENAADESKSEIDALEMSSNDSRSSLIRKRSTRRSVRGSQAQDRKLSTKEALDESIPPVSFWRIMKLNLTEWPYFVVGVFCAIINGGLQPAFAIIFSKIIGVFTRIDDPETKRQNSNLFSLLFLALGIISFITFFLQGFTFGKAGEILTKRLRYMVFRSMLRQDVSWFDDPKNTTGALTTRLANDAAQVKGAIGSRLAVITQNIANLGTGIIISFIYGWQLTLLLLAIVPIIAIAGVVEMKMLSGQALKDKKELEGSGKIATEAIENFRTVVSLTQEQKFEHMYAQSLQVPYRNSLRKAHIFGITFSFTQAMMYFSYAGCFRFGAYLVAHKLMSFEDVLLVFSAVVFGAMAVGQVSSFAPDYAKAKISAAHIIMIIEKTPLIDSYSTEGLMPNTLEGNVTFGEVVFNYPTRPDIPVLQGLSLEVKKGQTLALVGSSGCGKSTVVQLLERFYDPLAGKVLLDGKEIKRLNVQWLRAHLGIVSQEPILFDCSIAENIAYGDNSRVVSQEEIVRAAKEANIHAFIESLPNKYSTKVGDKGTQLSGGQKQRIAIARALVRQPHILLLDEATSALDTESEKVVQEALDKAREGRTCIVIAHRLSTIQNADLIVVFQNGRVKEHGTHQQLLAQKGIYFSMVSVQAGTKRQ

[3] = molecular target: T2, BCRP (Homo sapiens, UniProt Q9UNQ0); assay: MDCK-BCRP efflux; assay type: in vitro ADME; conditions: dog, read-out: MDCK-BCRP ER
T2 construct: expressed in transfected cells; host or cells: MDCK
T2 sequence (Q9UNQ0 1-655): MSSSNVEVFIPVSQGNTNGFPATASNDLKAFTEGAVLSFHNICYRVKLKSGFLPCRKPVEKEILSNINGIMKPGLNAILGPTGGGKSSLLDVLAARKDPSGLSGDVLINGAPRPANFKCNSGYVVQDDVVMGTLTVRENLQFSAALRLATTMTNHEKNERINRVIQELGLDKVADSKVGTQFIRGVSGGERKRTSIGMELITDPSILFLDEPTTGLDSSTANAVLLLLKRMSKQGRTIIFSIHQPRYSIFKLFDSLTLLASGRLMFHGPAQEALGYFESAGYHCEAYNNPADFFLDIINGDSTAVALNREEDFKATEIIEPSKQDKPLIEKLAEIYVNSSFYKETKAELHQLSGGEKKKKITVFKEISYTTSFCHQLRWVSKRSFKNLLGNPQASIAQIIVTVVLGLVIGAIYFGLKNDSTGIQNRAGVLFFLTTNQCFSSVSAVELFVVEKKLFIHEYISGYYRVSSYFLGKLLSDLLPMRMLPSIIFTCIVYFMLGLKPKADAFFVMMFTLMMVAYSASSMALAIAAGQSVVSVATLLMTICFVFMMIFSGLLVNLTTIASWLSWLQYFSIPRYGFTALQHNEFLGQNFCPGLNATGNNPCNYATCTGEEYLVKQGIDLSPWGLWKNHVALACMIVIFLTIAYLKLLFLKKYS

[4] = tested on: PC-9 derivative with an ex19del/C797S in cis double mutation; assay: C797S double mutant knock-in xenograft, tumour growth inhibition; conditions: 15 mg/kg BID, PC-9 ex19del/C797S xenograft
Text: as §1

[5] = Free CNS penetration (Kp,uu), rat brain slice method; assay type: in vivo, mice and rats; conditions: oral dosing; rat brain slice method for free fraction in brain; osimertinib run in parallel as benchmark
Procedure: In order to characterise compound A in vitro and in vivo potency and selectivity for C797S-active double-mutant inhibitor vs. EGFR wild type, compound A was assessed in vitro and in vivo across a variety of engineered or endogenously occurring single (ex19del or L858R) or double (ex19del/C797S or L858R/C797S) mutant systems. In addition, the CNS exposure of compound A was also characterised using a gold-standard rat brain slice method to assess free exposure in brain tissue.
Compound A is an EGFR inhibitor of formula I(a). Compound A was tested across a panel of in vitro biochemical, cell signalling, and proliferation assays for potency against EGFR L858R and ex19del single mutants and/or the corresponding C797S double mutants. Additionally, compound A was tested for in vivo activity in mice bearing human NSCLC cell line xenografts NCI-H3255 (L858R) and PC-9 (ex19del), and in a PC-9-derived ex19del/C797S double mutant knock-in xenograft. Free CNS penetration (Kp,uu) was determined in nontumour bearing mice and rats. Osimertinib and/or gefitinib were used as benchmark molecules across assays.

[6] = tested on: pEGFR (phosphorylated EGFR, Tyr1068); assay: pEGFR (Tyr1068) inhibition, AlphaLISA; conditions: compared with gefitinib
Text: as §1

[7] = tested on: human NSCLC cell lines; assay: Human cancer cell line proliferation inhibition (CellTiterGlo); assay type: cell-based
[8] = assay type: in vivo
[9] = tested on: PC-9 (ex19del); assay: ex19del human tumour xenograft, tumour growth inhibition
Text: as §1

[10] = tested on: Ba/F3 lines expressing the noted EGFR constructs; assay: Ba/F3 proliferation inhibition (CellTiterGlo, 72 hr assay); assay type: cell-based
[11] = tested on: pEGFR; assay: PC-9 (ex19del) PK/PD study, pEGFR pharmacodynamic readout; assay type: in vivo; conditions: 15 mg/kg single dose, over a 12-hour BID dosing window
[12] = Caco-2 in vitro permeability (efflux ratio); assay type: in vitro ADME; conditions: human, read-out: CAco-2 ER

SMILES: COCC[C@H]1CNC(=O)c2c1[nH]c(-c1ccnc(C)n1)c2Nc1cccc(Cl)c1OC [Compound A]
- tumour growth inhibition (TGI) [1]: ≥ 90%
- efflux ratio at 1 µM [2]: 0.95
- efflux ratio at 1 µM [3]: 1.17
- in vivo tumour growth inhibition in the presence of C797S [4]: retained in vivo tumour growth inhibition
- in vivo tumour growth inhibition in the presence of C797S ([4]; listed as compound A): no drop-off in antitumour activity
- brain exposure Kp,uu [5]: comparable to Osimertinib
- selectivity for all tested EGFR mutant cell lines relative to EGFR wild-type cell line NCI-H2073 (pEGFR inhibition IC50) [6]: exceeded that of gefitinib
- inhibition of L858R, ex19del, L858R/C797S and ex19del/C797S mutants in proliferation assays ([7]; human NSCLC cell lines): high picomolar to low nanomolar
- selectivity for all tested mutants relative to wild-type EGFR ([7]; human cancer cells): > 150 x
- tolerability ([8]; 15 mg/kg BID or 50 mg/kg QD in mice): well tolerated
- tolerability ([8]; 5-15 mg/kg BID, mice): well tolerated
- tumour growth inhibition (TGI) ([9]; 5-15 mg/kg BID, ex19del human tumour xenografts in mice): ≥ 90%
- antitumour activity in EGFR single mutant xenografts ([9]; EGFR single mutant xenografts (ex19del or L858R), 15 mg/kg BID or 50 mg/kg QD in mice): regression
- inhibition of L858R, ex19del, L858R/C797S and ex19del/C797S mutants in proliferation assays ([10]; engineered Ba/F3): high picomolar to low nanomolar
- selectivity for all tested mutants relative to wild-type EGFR ([10]; engineered Ba/F3 cells): > 150 x
- inhibition at 15 mg/kg [11]: > 50%
- efflux ratio at 1 µM [12]: 1.76
